Residues, ends and D or L forms follow the SMILES beside them. *: point of attachment. NHBn = c1ccc(CN*)cc1; Bz = O=C(c1ccccc1)*; NHiPr = CC(C)N*
Tests used:
[1] = biological target: Genome polyprotein (dengue virus type 2) (UniProt P29990); assay: Inhibition of Dengue virus 2 NS2B-NS3 protease using Abz-Nle-Lys-Arg-Arg-Ser-Tyr(3-NO2)-NH2 as substrate at 50 uM preincubated with enzyme for 15 mins followed by substrate addition and measured for 15 mins by FRET assay relative to control; details: time 30.0 min
[2] = biological target: Genome polyprotein (dengue virus type 2, UniProt P29990); assay: Inhibition of Dengue virus 2 NS2B-NS3 protease using Abz-Nle-Lys-Arg-Arg-Ser-Tyr(3-NO2)-NH2 as substrate preincubated with enzyme for 15 mins followed by substrate addition and measured for 15 mins by FRET assay relative to control

Compound | inhibition [1] [%] | IC50 [2] [µM]
N=C(N)NCCC[C@H](NC(=O)c1ccccc1)C(=O)N[C@@H](CCCCN)C(=O)NCc1ccccc1 (Bz-Arg-Lys-NHBn) | 41.3 | 
CC(C)NC(=O)[C@H](CCCCN)NC(=O)[C@H](CCCNC(=N)N)NC(=O)c1ccccc1 (Bz-Arg-Lys-NHiPr) | 28.8 | 
N=C(N)Nc1ccc(C[C@H](NC(=O)[C@@H](NC(=O)c2ccccc2)c2ccc(OCc3ccccc3)cc2)C(=O)N[C@@H](C(N)=O)c2ccc(OCc3ccccc3)cc2)cc1 | 101 | 1.7
N=C(N)NCCC[C@H](NC(=O)c1ccccc1)C(=O)N[C@@H](Cc1ccc(N)cc1)C(=O)NCc1ccc(OCc2ccccc2)cc1 | 69.3 | 
NCCCC[C@H](NC(=O)c1ccccc1)C(=O)N[C@H](Cc1ccc(N)cc1)C(=O)NCc1ccc(OCc2ccccc2)cc1 | 94.5 | 35.8
N=C(N)NCCC[C@H](NC(=O)c1ccccc1)C(=O)N[C@H](Cc1ccc(N)cc1)C(=O)NCc1ccc(OCc2ccccc2)cc1 | 29.1 | 
NCCCC[C@H](NC(=O)[C@@H](NC(=O)c1ccccc1)c1ccc(OCc2ccccc2)cc1)C(=O)N[C@@H](C(N)=O)c1ccc(OCc2ccccc2)cc1 | 98.8 | 6.6
CC[C@@H](C)[C@H](NC(=O)[C@H](NC(=O)[C@H](CCCCN)NC(=O)[C@H](CCCNC(=N)N)NC(=O)c1ccccc1)c1ccc(OCc2ccccc2)cc1)C(N)=O | 58.1 | 
NCCCC[C@H](NC(=O)c1ccccc1)C(=O)N[C@@H](Cc1ccc(N)cc1)C(=O)NCc1ccc(OCc2ccccc2)cc1 | < 20 | 
NCCCC[C@H](NC(=O)c1ccccc1)C(=O)N[C@@H](C(=O)N[C@H](C(N)=O)C1CCCCC1)c1ccc(OCc2ccccc2)cc1 | 99.6 | 9.4
N=C(N)NCCC[C@H](NC(=O)c1ccccc1)C(=O)N[C@@H](CCCCN)C(=O)N[C@@H](C(=O)N[C@H](C(N)=O)C1CCCCC1)c1ccc(OCc2ccccc2)cc1 | 95.9 | 13.7
N=C(N)NCCC[C@H](NC(=O)c1ccccc1)C(=O)N[C@@H](CCCCN)C(=O)NCc1ccc(OCc2ccccc2)cc1 | 63.3 | 
N=C(N)NCCC[C@H](NC(=O)c1ccccc1)C(=O)N[C@@H](CCCCN)C(=O)N[C@@H](C(=O)NCc1ccc(C(N)=O)cc1)c1ccc(OCc2ccccc2)cc1 | 103 | 0.4
N=C(N)NCCC[C@H](NC(=O)c1ccccc1)C(=O)N[C@@H](CCCCN)C(=O)N[C@@H](C(=O)NCc1ccc(CN)cc1)c1ccc(OCc2ccccc2)cc1 | 99.7 | 0.3
NCCCC[C@H](NC(=O)c1ccccc1)C(=O)N[C@@H](C(=O)N[C@@H](C(N)=O)C1CCCCC1)c1ccc(OCc2ccccc2)cc1 | 98 | 7.9
N=C(N)NCCC[C@H](NC(=O)c1ccccc1)C(=O)N[C@@H](CCCCN)C(=O)NCCc1ccc(OCc2ccccc2)cc1 | 63.9 | 
N=C(N)NCCC[C@H](NC(=O)c1ccccc1)C(=O)N[C@@H](CCCCN)C(=O)Nc1ccc(OCc2ccccc2)cc1 | 59.8 | 
NCCCC[C@H](NC(=O)c1ccccc1)C(=O)N[C@H](C(=O)N[C@H](C(N)=O)C1CCCCC1)c1ccc(OCc2ccccc2)cc1 | 93.1 | 9.9

From ChEMBL document CHEMBL4840342, “The spectrum between substrates and inhibitors: Pinpointing the binding mode of dengue protease ligands with modulated basicity and hydrophobicity” (Bioorg Med Chem, 2021)
